Drawing on patent publication US20250179103A1, “6-OXODECAHYDROPYRROLO[1,2-A][1,5]DIAZOCINE AND 6-OXODECAHYDRO-4H-PYRROLO[2,1-D][1,5]THIAZOCINE DERIVATIVES AS STAT3 AND STAT6 MODULATORS FOR THE TREATMENT OF CANCER AND INFLAMMATORY CONDITIONS” (Recludix Pharma, Inc., priority 2022, published 2025), this text covers IC50 for twelve compounds.

Assay [1] has as its system pY705-STAT3 in Peripheral Blood Mononuclear Cells (PBMC). Nature of the assay: MSD-pSTAT-PBMC Assay (pSTAT3, IL-6 stimulated). It counts as cell-based, Human. Particulars: Homo sapiens, compound 3 hrs, then 10 ng/mL IL-6 for 10 min. The source says: Cryopreserved Peripheral Blood Mononuclear Cells (PBMC) are from AllCells. Recombinant Human IL-4 and IL-6 are from Peprotech. Mouse monoclonal anti-STAT3 antibody, rabbit monoclonal anti-pY705-STAT3 antibody, rabbit monoclonal Anti-pY641-STAT6 antibody, and lysis buffer are from Cell Signaling Technology (CST). Mouse monoclonal anti-STAT6 antibody is from BioLegend. Assay plates, blocker, and anti-rabbit secondary antibody are from Meso Scale Discovery (MSD).
Cryopreserved PBMCs were thawed out and allowed to recover overnight in IMDM+10% heat-inactivated FBS prior to plating 50,000 (STAT3) or 25,000 (STAT6) cells per well in 96-well U-bottom tissue culture plates. Cells were treated with compound for 3 hrs, then stimulated with 10 ng/mL IL-6 (STAT3) or 1 ng/mL IL-4 (STAT6) for 10 min. Cells were then spun down and washed with ice-cold PBS prior to lysing the cell pellet with 1× lysis buffer (CST) with 1×HALT protease and phosphatase inhibitor cocktail (Thermo). Lysates were transferred to and incubated overnight at 4° C. with shaking in QuickPlex 96-well high bind assay plates (MSD) pre-coated overnight with 30 μL per well of 0.6 μg/mL mouse monoclonal anti-STAT3 antibody (STAT3) or 2 μg/mL mouse monoclonal anti-STAT6 antibody (STAT6) in 1×PBS, and pre-blocked for 1 hour with 3% Blocker-A (MSD). Captured protein in the assay plates were then washed and probed with 25 μL per well of 0.25 μg/ml rabbit monoclonal anti-pY705-STAT3 antibody (STAT3) or […] rabbit monoclonal Anti-pY641-STAT6 antibody (STAT6) in 1% Blocker-A for 1 hour at room temperature with shaking, then washed and probed with 25 ul per well of 1 ug/ml Sulfo-TAG Labeled Goat Anti-Rabbit Antibody (MSD) in 1% Blocker-A for 1 hour at room temperature with shaking. Assay plates were then washed and 150 μL of 1× Read Buffer-T (MSD) was added to each well prior to reading on an SQ120 MSD Plate Reader. Assay signal from each sample was subtracted by the signal from unstimulated control wells and normalized to DMSO control wells. IC50 values were calculated using Graph Pad Prism Dose-Response Nonlinear Regression with variable slope. For both pSTAT3 and pSTAT6 A=≤100 nM; B=>100-1000 nM; C=>1000-3000 nM; and D=>3 μM.

The subject of assay [2] is pY641-STAT6 in Peripheral Blood Mononuclear Cells (PBMC). Briefly: MSD-pSTAT-PBMC Assay (pSTAT6, IL-4 stimulated). Format: cell-based, Human. The settings on record: Homo sapiens, compound 3 hrs, then 1 ng/mL IL-4 for 10 min. A digest of the protocol: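 Human PBMCs were preincubated 3 h with compound, then stimulated 10 min with 10 ng/mL IL-6 (pY705-STAT3) or 1 ng/mL IL-4 (pY641-STAT6). Lysates were read by MSD sandwich immunoassay, capturing total STAT and detecting phospho-STAT. Signal was unstimulated-subtracted and DMSO-normalised, with variable-slope IC50 binned A–D.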

Usually IC50 stands for the concentration that inhibits the measured activity by half. For `CC(=O)N1CC[C@H]2CC[C@@H](C(=O)N3C[C@H](c4ccccc4)[C@@H](C#N)C3)N2C(=O)[C@@H](NC(=O)c2ccc3ccc(C(F)(F)P(=O)(OCOC(=O)C(C)(C)C)OCOC(=O)C(C)(C)C)cc3c2)C1` (mixture of isomers) [Compound 323, ((((7-(((5S,8S, 10aR)-3-acetyl-8-((rel- trans)-3-cyano-4-phenyl-pyrrolidine-1-carbonyl)-6-oxodecahydro-pyrrolo[1,2-a][1,5]diazocin-5-yl)carbamoyl)naphthalen-2-yl)difluoro-methyl)phos-phoryl)bis(oxy)) bis(methylene) bis(2,2-dimethylpro-panoate)], the figures for the IC50 in assay [1] and in assay [2] were 1 to 3 µM and not above 0.1 µM, respectively. The corresponding values for `CCCC(=O)SCCOP(=O)(OCCSC(=O)CCC)C(F)(F)c1ccc2ccc(C(=O)N[C@H]3CN(C(=O)c4n[nH]c5ccc(C)cc45)CC[C@H]4CC[C@@H](C(=O)N5CC(c6ccccc6)[C@@H](C#N)C5)N4C3=O)cc2c1` (relative stereo) [Compound 336, S,S′-(((((7-(((5S,8S,10aR)-8-((rel-trans)-3-cyano-4-phenylpyrrolidine-1-carbonyl)-3-(5-methyl-1H-indazole-3-carbonyl)-6-oxodecahydropyrrolo[1,2-a][1,5]diazocin-5-yl)carbamoyl)naphthalen-2-yl)difluoromethyl)phosphoryl)bis(oxy))bis(ethane-2,1-diyl)) dibutanethioate] are 1 to 3 µM and not above 0.1 µM. Regarding `CC(C)(C)C(=O)SCCOP(=O)(OCCSC(=O)C(C)(C)C)C(F)(F)c1ccc2ccc(C(=O)N[C@H]3CN(CC(F)F)CC[C@H]4CC[C@@H](C(=O)N5CC[C@H](c6ccccc6)[C@@H](C#N)C5)N4C3=O)cc2c1` (relative stereo) [Compound 340, S,S′-(((((7-(((5S,8S,10aR)-8-((rel-trans)-3-cyano-4-phenylpiperidine-1-carbonyl)-3-(2,2-difluoroethyl)-6-oxodecahydropyrrolo[1,2-a][1,5]diazocin-5-yl)carbamoyl)naphthalen-2-yl)difluoromethyl)phosphoryl)bis(oxy))bis (ethane-2,1-diyl))bis(2,2-dimethylpropanethioate)], the half-inhibitory concentration (IC50) in assay [1] and in assay [2] was more than 3 µM each time. Take `CC(C)CC(=O)SCCOP(=O)(OCCSC(=O)CC(C)C)C(F)(F)c1ccc2ccc(C(=O)N[C@H]3CN(CC(F)F)CC[C@H]4CC[C@@H](C(=O)N5C[C@H](c6cc(F)cc(F)c6)[C@@H](C#N)C5)N4C3=O)cc2c1` (relative stereo) [Compound 341, S,S′-(((((7-(((5S,8S,10aR)-8-((rel-trans)-3-cyano-4-(3,5-difluorophenyl)pyrrolidine-1-carbonyl)-3-(2,2-difluoroethyl)-6-oxodecahydropyrrolo[1,2-a][1,5]diazocin-5-yl)carbamoyl)naphthalen-2-yl)difluoromethyl)phosphoryl)bis(oxy))bis(ethane-2,1-diyl))bis(3-methylbutanethioate)]: the IC50 was more than 3 µM in assay [1] and 1 to 3 µM in assay [2]. For `COC(=O)N1CC[C@H]2CC[C@@H](C(=O)N3C[C@H](c4ccccc4)[C@@H](C#N)C3)N2C(=O)[C@@H](NC(=O)c2cc3cc(C(F)(F)P(=O)(OCOC(=O)C(C)(C)C)OCOC(=O)C(C)(C)C)ccc3s2)C1` (relative stereo) [Compound 349, ((((2-(((5S,8S,10aR)-8-((rel-trans)-3-cyano-4-phenylpyrrolidine-1-carbonyl)-3-(methoxycarbonyl)-6-oxodecahydropyrrolo[1,2-a][1,5]diazocin-5-yl)carbamoyl)benzo[b]thiophen-5-yl)difluoromethyl)phosphoryl)bis(oxy)) bis(methylene) bis(2,2-dimethylpropanoate)], the 50% inhibitory concentration (IC50) was 0.1 to 1 µM in assay [1] and not above 0.1 µM in assay [2].

With `CCN1CC[C@H]2CC[C@@H](C(=O)N3C[C@@H](C#N)[C@H](c4ccccc4)C3)N2C(=O)[C@@H](NC(=O)c2cc3cc(C(F)(F)P(=O)(OCOC(=O)C(C)(C)C)OCOC(=O)C(C)(C)C)ccc3s2)C1` (single isomer, unassigned) [Compound 281, ((((2-(((5S,8S, 10aR)-8-((3S,4R or 3R,4S)-3-cyano-4-phenyl-pyrrolidine-1-carbonyl)-3-ethyl-6-oxodecahydro-pyrrolo[1,2-a][1,5]diazocin-5-yl)carbamoyl)benzo[b]thiophen-5-yl)difluoro-methyl)phos-phoryl)bis(oxy)) bis(methylene) bis(2,2-dimethyl-propanoate)], the half-inhibitory concentration (IC50) in assay [1] and in assay [2] was not above 0.1 µM in each case. Compound `CC(C)OC(=O)[C@H](C)NP(=O)(Cc1ccc2sc(C(=O)N[C@H]3CN(Cc4ccn5ccnc5c4)CC[C@H]4CC[C@@H](C(=O)N5CC(c6cccnc6)C5)N4C3=O)cc2c1)NCc1ccccc1` (stereo partly drawn) [Compound 333] yielded an IC50 in assay [1] of more than 3 µM. On the same count and under the same terms, to `CC(C)OC(=O)OCOP(=O)(Cc1ccc2sc(C(=O)N[C@H]3CN(Cc4ccn5ccnc5c4)CC[C@H]4CC[C@@H](C(=O)N5CC(c6cccnc6)C5)N4C3=O)cc2c1)OCOC(=O)OC(C)C` [Compound 338, ((((2-(((5S,8S,10aR)-3-(imidazo[1,2-a]pyridin-7-ylmethyl)-6-oxo-8-(3-(pyridin-3-yl)azetidine-1-carbonyl)decahydropyrrolo[1,2-a][1,5]diazocin-5-yl)carbamoyl)benzo[b]thiophen-5-yl)methyl)phosphoryl)bis (oxy))bis(methylene)diisopropylbis(carbonate)] belongs 0.1 to 1 µM. The compound `Cc1ccc2onc(C(=O)N3CC[C@H]4CC[C@@H](C(=O)N5C[C@H](c6ccn(C)c(=O)c6)CC56CC6)N4C(=O)[C@@H](NC(=O)c4ccc5ccc(C(F)(F)P(=O)(OCCSC(=O)CC(C)C)OCCSC(=O)CC(C)C)cc5c4)C3)c2c1` [Compound 438, S,S′-((((difluoro(7 (((5S,8S,10aR)-8-((S)-6-(1-methyl-2-oxo-1,2-dihydropyridin-4-yl)-4-azaspiro[2.4]heptane-4-carbonyl)-3-(5-methylbenzo [d]isoxazole-3-carbonyl)-6-oxodeca-hydropyrrolo [1,2-a][1,5]diazocin-5-yl)carbamoyl)naphthalen-2-yl)methyl)phosphoryl)bis (oxy))bis (ethane-2,1-diyl))bis(3-methylbutane thioate)] returned a concentration for half-maximal inhibition (IC50) in assay [2] not above 0.1 µM.

In assay [2], `CCCC(=O)SCCOP(=O)(OCCSC(=O)CCC)C(F)(F)c1ccc2ccc(C(=O)N[C@H]3CN(C(=O)c4noc5ccc(C)cc45)CC[C@H]4CC[C@@H](C(=O)N5C[C@H](c6ccn(C)c(=O)c6)CC56CC6)N4C3=O)cc2c1` [Compound 439, S,S′-((((difluoro(7 (((5S,8S,10aR)-8-((S)-6-(1-methyl-2-oxo-1,2-dihydropyridin-4-yl)-4-azaspiro[2.4]heptane-4-carbonyl)-3-(5-methylbenzo [d]isoxazole-3-carbonyl)-6-oxodeca-hydropyrrolo [1,2-a][1,5]diazocin-5-yl)carbamoyl)naphthalen-2-yl)methyl)phosphoryl)bis (oxy))bis (ethane-2,1-diyl)) dibutanethioate] came in with an IC50 not above 0.1 µM. On to `CCCOC(=O)[C@H](C)NP(=O)(Oc1ccccc1)C(F)c1ccc2ccc(C(=O)N[C@H]3CN(C(=O)c4noc5ccc(C)cc45)CC[C@H]4CC[C@@H](C(=O)N5C[C@@H](C)O[C@@H](C)C5)N4C3=O)cc2c1` (stereo partly drawn) [Compound 440, propyl (((7-(((5S,8S,10aR)-8-((2R,6S)-2,6-dimethyl-morpholine-4-carbonyl)-3-(5-methylbenzo [d]isoxazole-3-carbonyl)-6-oxodeca-hydropyrrolo [1,2-a][1,5]diazocin-5-yl)carbamoyl)naphthalen-2-yl)fluoromethyl) (phenoxy)phosphoryl)-L-alaninate], for which, in assay [2], the concentration for half-maximal inhibition (IC50) is not above 0.1 µM. For `CCCOC(=O)[C@H](C)NP(=O)(Oc1ccccc1)C(F)c1ccc2sc(C(=O)N[C@H]3CN(CC(F)F)CC[C@H]4CC[C@@H](C(=O)N5C[C@@H](C#N)[C@H](c6ccccc6)C5)N4C3=O)cc2c1` (stereo partly drawn) [Compound 441], in assay [2], the IC50 was not above 0.1 µM.
